Columns and labels:
[1] = molecular target: T1, Urokinase-type plasminogen activator (Homo sapiens, UniProt P00749)
Plasminogen [2] = molecular target: T2, Plasminogen (Homo sapiens, UniProt P00747)
Plasminogen [3] = molecular target: T2, Plasminogen; remark: listed apart in the source
Plasminogen [4] = molecular target: T2, Plasminogen; remark: listed apart in the source
Description: Binding constant on plasmin was determined at 30 percent and at 82 minutes for maximum inhibition and no enzyme activity was recovered over the 2 h-time

Plasminogen [5] = molecular target: T2, Plasminogen; assay: Rate constant of deacylation for plasmin; Fast and could not be measured
[6] = molecular target: T1, Urokinase-type plasminogen activator; remark: listed apart in the source
Description: Specificity constant on Urokinase-type plasminogen activator was determined at 0 percent and at 91 minutes for maximum inhibition and no enzyme activity was recovered over the 2 h-time

Prothrombin [7] = molecular target: T3, Prothrombin (Homo sapiens, UniProt P00734)
[8] = molecular target: T1, Urokinase-type plasminogen activator; remark: listed apart in the source
Prothrombin [9] = molecular target: T3, Prothrombin; remark: listed apart in the source
Prothrombin [10] = molecular target: T3, Prothrombin; assay: Rate constant of deacylation for thrombin
Prothrombin [11] = molecular target: T3, Prothrombin; remark: listed apart in the source
[12] = molecular target: T1, Urokinase-type plasminogen activator; assay: Rate constant of deacylation for Urokinase-type plasminogen activator
Serine protease 1 [13] = molecular target: T4, Serine protease 1 (Homo sapiens, UniProt P07477); assay: Rate constant of deacylation for trypsin
T4 sequence (P07477 whole entry): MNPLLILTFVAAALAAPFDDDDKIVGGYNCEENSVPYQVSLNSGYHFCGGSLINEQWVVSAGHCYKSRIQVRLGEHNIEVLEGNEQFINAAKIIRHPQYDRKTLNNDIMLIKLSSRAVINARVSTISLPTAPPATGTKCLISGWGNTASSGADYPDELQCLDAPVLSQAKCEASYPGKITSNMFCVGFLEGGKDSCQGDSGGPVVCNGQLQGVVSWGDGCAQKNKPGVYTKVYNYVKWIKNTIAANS

[14] = molecular target: T5, Chymotrypsin-like elastase family member 2A (Sus scrofa) (UniProt P08419); assay: Binding constant on porcine pancreatic elastase was determined at 10 percent and at 78 minutes for maximum inhibition and no enzyme activity was recovered over the 2 h-time
T5 sequence (whole entry): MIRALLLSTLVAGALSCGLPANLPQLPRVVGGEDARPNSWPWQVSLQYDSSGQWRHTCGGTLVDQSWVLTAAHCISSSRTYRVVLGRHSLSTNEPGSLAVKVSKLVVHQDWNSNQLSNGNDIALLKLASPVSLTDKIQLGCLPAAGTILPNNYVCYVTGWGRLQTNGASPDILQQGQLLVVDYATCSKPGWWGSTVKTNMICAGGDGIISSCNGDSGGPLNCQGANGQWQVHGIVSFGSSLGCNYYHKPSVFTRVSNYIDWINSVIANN

[15] = molecular target: T6, Neutrophil elastase (Homo sapiens) (UniProt P08246); assay: Specificity constant on human neutrophil elastase was determined at 30 percent and at 35 minutes for maximum inhibition with 0 minutes persistence of inhibition
T6 sequence (whole entry): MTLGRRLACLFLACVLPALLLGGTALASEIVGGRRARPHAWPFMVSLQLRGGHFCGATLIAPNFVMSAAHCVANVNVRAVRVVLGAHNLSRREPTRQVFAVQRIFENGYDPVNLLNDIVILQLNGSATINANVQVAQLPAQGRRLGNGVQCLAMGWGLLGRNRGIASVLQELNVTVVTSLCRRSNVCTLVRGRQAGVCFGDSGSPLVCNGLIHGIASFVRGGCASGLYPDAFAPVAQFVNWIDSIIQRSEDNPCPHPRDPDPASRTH

[16] = molecular target: T6, Neutrophil elastase (Homo sapiens); assay: Rate constant of acylation on human neutrophil elastase was determined at 30 percent and at 35 minutes for maximum inhibition with 0 minutes persistence of inhibition
[17] = molecular target: T5, Chymotrypsin-like elastase family member 2A (Sus scrofa); assay: Rate constant of acylation on porcine pancreatic elastase was determined at 10 percent and at 78 minutes for maximum inhibition and no enzyme activity was recovered over the 2 h-time
[18] = molecular target: T5, Chymotrypsin-like elastase family member 2A (Sus scrofa); assay: Specificity constant on porcine pancreatic elastase was determined at 10 percent and at 78 minutes for maximum inhibition and no enzyme activity was recovered over the 2 h-time
[19] = molecular target: T6, Neutrophil elastase (Homo sapiens); assay: Binding constant on human neutrophil elastase was determined at 30 percent and at 35 minutes for maximum inhibition with 0 minutes persistence of inhibition
[20] = molecular target: Chymotrypsinogen A (Bos taurus) (UniProt P00766); assay: Rate constant of acylation on alpha-chymotrypsin was determined at 10 percent and at 99 minutes for maximum inhibition and no enzyme activity was recovered over the 2 h-time
[21] = molecular target: Chymotrypsinogen A (Bos taurus) (UniProt P00766); assay: Binding constant on alpha-chymotrypsin was determined at 10 percent and at 99 minutes for maximum inhibition and no enzyme activity was recovered over the 2 h-time
[22] = molecular target: T6, Neutrophil elastase (Homo sapiens); assay: Binding constant on human neutrophil elastase was determined at 90 percent and at 93 minutes for maximum inhibition and no enzyme activity was recovered over the 2 h-time
[23] = molecular target: T5, Chymotrypsin-like elastase family member 2A (Sus scrofa); assay: Specificity constant on porcine pancreatic elastase was determined at 30 percent and at 99 minutes for maximum inhibition and no enzyme activity was recovered over the 2 h-time
[24] = molecular target: Chymotrypsinogen A (Bos taurus) (UniProt P00766); assay: Specificity constant on alpha-chymotrypsin was determined at 10 percent and at 99 minutes for maximum inhibition and no enzyme activity was recovered over the 2 h-time
Serine protease 1 [25] = molecular target: T4, Serine protease 1; assay: Rate constant of acylation on trypsin was determined at 10 percent and at 95 minutes for maximum inhibition and no enzyme activity was recovered over the 2 h-time
[26] = molecular target: T5, Chymotrypsin-like elastase family member 2A (Sus scrofa); assay: Binding constant on porcine pancreatic elastase was determined at 30 percent and at 99 minutes for maximum inhibition and no enzyme activity was recovered over the 2 h-time
[27] = molecular target: T6, Neutrophil elastase (Homo sapiens); assay: Specificity constant on human neutrophil elastase was determined at 90 percent and at 93 minutes for maximum inhibition and no enzyme activity was recovered over the 2 h-time
Serine protease 1 [28] = molecular target: T4, Serine protease 1; assay: Binding constant on trypsin was determined at 10 percent and at 95 minutes for maximum inhibition and no enzyme activity was recovered over the 2 h-time
[29] = molecular target: T6, Neutrophil elastase (Homo sapiens); assay: Rate constant of acylation on human neutrophil elastase was determined at 90 percent and at 93 minutes for maximum inhibition and no enzyme activity was recovered over the 2 h-time
Serine protease 1 [30] = molecular target: T4, Serine protease 1; assay: Specificity constant on trypsin was determined at 10 percent and at 95 minutes for maximum inhibition and no enzyme activity was recovered over the 2 h-time
[31] = molecular target: T5, Chymotrypsin-like elastase family member 2A (Sus scrofa); assay: Rate constant of acylation on porcine pancreatic elastase was determined at 30 percent and at 99 minutes for maximum inhibition and no enzyme activity was recovered over the 2 h-time
[32] = molecular target: T6, Neutrophil elastase (Homo sapiens); assay: Rate constant of acylation on human neutrophil elastase was determined at 48 percent and at 60 minutes for maximum inhibition with 0 minutes persistence of inhibition
[33] = molecular target: T5, Chymotrypsin-like elastase family member 2A (Sus scrofa); assay: Binding constant on porcine pancreatic elastase was determined at 42 percent and at 55 minutes for maximum inhibition and no enzyme activity was recovered over the 2 h-time
[34] = molecular target: T5, Chymotrypsin-like elastase family member 2A (Sus scrofa); assay: Rate constant of acylation on porcine pancreatic elastase was determined at 42 percent and at 55 minutes for maximum inhibition and no enzyme activity was recovered over the 2 h-time
[35] = molecular target: T5, Chymotrypsin-like elastase family member 2A (Sus scrofa); assay: Specificity constant on porcine pancreatic elastase was determined at 42 percent and at 55 minutes for maximum inhibition and no enzyme activity was recovered over the 2 h-time
[36] = molecular target: T6, Neutrophil elastase (Homo sapiens); assay: Specificity constant on human neutrophil elastase was determined at 48 percent and at 60 minutes for maximum inhibition and with 0 minutes persistence of inhibition
[37] = molecular target: T6, Neutrophil elastase (Homo sapiens); assay: Binding constant on human neutrophil elastase was determined at 48 percent and at 60 minutes for maximum inhibition with 0 minutes persistence of inhibition

T2 sequence (P00747 97-580 limits assumed): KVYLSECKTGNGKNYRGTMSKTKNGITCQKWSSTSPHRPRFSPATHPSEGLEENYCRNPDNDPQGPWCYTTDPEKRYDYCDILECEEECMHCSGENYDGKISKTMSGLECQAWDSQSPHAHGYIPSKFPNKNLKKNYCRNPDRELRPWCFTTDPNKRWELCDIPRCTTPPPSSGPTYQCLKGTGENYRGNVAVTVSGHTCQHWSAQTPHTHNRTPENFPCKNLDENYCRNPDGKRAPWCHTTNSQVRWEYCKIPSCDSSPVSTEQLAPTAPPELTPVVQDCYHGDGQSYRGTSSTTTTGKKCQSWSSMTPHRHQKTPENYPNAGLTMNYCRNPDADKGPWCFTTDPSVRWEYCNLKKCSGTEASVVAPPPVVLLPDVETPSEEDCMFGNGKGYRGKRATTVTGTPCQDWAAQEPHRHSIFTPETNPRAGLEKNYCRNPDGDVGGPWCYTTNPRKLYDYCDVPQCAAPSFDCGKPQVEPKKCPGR
T2 sequence (P00747 581-810 limits assumed): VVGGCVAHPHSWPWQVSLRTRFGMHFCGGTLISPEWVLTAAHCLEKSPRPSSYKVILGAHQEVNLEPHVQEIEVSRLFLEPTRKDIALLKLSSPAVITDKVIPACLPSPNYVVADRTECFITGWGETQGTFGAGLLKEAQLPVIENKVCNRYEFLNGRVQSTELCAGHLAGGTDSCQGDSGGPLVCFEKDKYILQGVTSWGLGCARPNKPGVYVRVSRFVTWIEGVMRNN

C=C1CCC(c2ccc(CNC(=N)N)cc2)C(=O)O1 (centres undefined)
ka [1]: 9.8 min⁻¹
ka (Plasminogen [2]): 57 min⁻¹
ka/Ki (Plasminogen [3]): 2000 M⁻¹ s⁻¹
Ks/i (Plasminogen [4]): 466 µM
Kd (Plasminogen [5]): Not measurable
ka/Ki [6]: 467000 M⁻¹ s⁻¹
ka/Ki (Prothrombin [7]): 2500 M⁻¹ s⁻¹
Ks/i [8]: 0.35 µM
Ks/i (Prothrombin [9]): 37.9 µM
Kd (Prothrombin [10]): 0.0001 s⁻¹
ka (Prothrombin [11]): 5.58 min⁻¹
Kd [12]: 0.000733 s⁻¹

C=C1CC(c2ccc(NC(=N)N)cc2)CC(=O)O1 (centres undefined)
Kd (Plasminogen [5]): Not measurable
Kd (Serine protease 1 [13]): 3.3e-05 s⁻¹
Kd [12]: 0.00015 s⁻¹

CC1CC(=O)O/C(=C/Br)C1 (centres undefined)
Ks/i [14]: 216 µM
ka/Ki [15]: 333 M⁻¹ s⁻¹
ka [16]: 0.48 min⁻¹
ka [17]: 0.33 min⁻¹
ka/Ki [18]: 16.7 M⁻¹ s⁻¹
Ks/i [19]: 22.6 µM

CC(C)C1CC/C(=C\Br)OC1=O (centres undefined)
ka [20]: 6 min⁻¹
Ks/i [21]: 9.8 µM
Ks/i [22]: 0.77 µM
ka/Ki [23]: 333 M⁻¹ s⁻¹
ka/Ki [24]: 10000 M⁻¹ s⁻¹
ka (Serine protease 1 [25]): 1.8 min⁻¹
Ks/i [26]: 26.9 µM
ka/Ki [27]: 14500 M⁻¹ s⁻¹
Ks/i (Serine protease 1 [28]): 44 µM
ka [29]: 0.67 min⁻¹
ka/Ki (Serine protease 1 [30]): 667 M⁻¹ s⁻¹
ka [31]: 0.52 min⁻¹

C=C1CC(C)(C)CC(=O)O1
ka [32]: 0.77 min⁻¹
Ks/i [33]: 104 µM
ka [34]: 0.51 min⁻¹
ka/Ki [35]: 83.3 M⁻¹ s⁻¹
ka/Ki [36]: 333 M⁻¹ s⁻¹
Ks/i [37]: 43.3 µM

Source: ChEMBL document CHEMBL1126229, “Enol lactone derivatives as inhibitors of human neutrophil elastase and trypsin-like proteases” (Bioorg Med Chem Lett, 1992)
